Reference: Sander's compilation of Henry's law constants (doi:10.1016/s0378-3812(99)00193-4)

experiment: Henry solubility constant Hcp at 298.15 K (mol/(m3 Pa)); settings: reference: Ryu and Park (1999)

SMILES	Henry solubility constant Hcp
CCCCc1ccccc1 [butylbenzene]	0.00074
CCc1ccccc1 [ethylbenzene]	0.0011
ClC=C(Cl)Cl [trichloroethene]	0.00095
ClC(Cl)=C(Cl)Cl [tetrachloroethene]	0.00053
Cc1ccccc1 [methylbenzene]	0.0015
c1ccccc1 [benzene]	0.0017
Cc1ccc(C)cc1 [1,4-dimethylbenzene]	0.0014
ClC(Cl)(Cl)Cl [tetrachloromethane]	0.00038
Clc1ccccc1 [chlorobenzene]	0.0019
ClCCl [dichloromethane]	0.0041

More lines, now with the values ahead:

Henry solubility constant Hcp	SMILES
6.1e-06	CCCCCC [hexane]
0.00061	CCCCCc1ccccc1 [pentylbenzene]
4.5e-06	CCCCCCC [heptane]
3.4e-06	CCCCCCCC [octane]
2.2e-06	CCCCCCCCC [nonane]
